# Measurements published in patent publication US20110097274A1, “Carbon-11 and fluorine-18 labeled radioligands for positron emission tomography (PET) imaging for the brain serotonin transporters” (priority 2002, published 2011).
# pKd: −log10 of the molar value. Values joined by “and” are separate entries in the source; they are usually repeats but may differ in a detail not shown here. Equal values may be shown once.
# How the values were obtained:
# [1] = target: T1, SERT (Homo sapiens, UniProt P31645); settings: cited from earlier work
# T1 construct: consistent with values previously measured in six healthy humans (Parsey et al., 2000); host or cells: living human brain (PET, values quoted from Parsey et al. 2000, Ginovart et al. 2001)
# T1 sequence (P31645 whole entry): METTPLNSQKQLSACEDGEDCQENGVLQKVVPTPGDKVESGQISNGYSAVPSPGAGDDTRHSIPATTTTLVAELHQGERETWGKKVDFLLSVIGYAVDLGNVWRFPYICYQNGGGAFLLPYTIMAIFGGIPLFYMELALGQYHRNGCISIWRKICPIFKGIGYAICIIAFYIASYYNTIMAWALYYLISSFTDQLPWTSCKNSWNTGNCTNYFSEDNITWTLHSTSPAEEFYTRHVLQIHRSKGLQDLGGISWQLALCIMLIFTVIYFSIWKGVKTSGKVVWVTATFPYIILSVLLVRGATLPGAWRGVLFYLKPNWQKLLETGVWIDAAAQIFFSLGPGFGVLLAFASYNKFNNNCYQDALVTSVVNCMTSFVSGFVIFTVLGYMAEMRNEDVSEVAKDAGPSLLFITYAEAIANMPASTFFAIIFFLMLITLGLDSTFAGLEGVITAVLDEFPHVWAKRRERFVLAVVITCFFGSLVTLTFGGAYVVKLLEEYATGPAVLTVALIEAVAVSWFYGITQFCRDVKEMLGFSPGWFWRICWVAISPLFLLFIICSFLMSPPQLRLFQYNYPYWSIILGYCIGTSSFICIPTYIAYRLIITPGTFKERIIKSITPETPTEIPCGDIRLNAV
# [2] = target: SERT; settings: literature; cited from earlier work
# [3] = system: SERT; settings: same baboon, one tissue compartment model
# Description: The animal was then injected with [^18F]AFM (2.60 mCi, 425 Ci/mmol, 1.51 μg) and scanned for 90 minutes. Analysis of the input function and brain uptake was performed as described in the previous section. […] Arterial activity was corrected for parent fraction to form the input function.
# Data were analyzed with a one tissue compartment model.
# [4] = Biodistribution of labeled radioligands in male Sprague-Dawley rats; type: in vivo; settings: mean ± SD, n = 3
# Source text: Appropriately labeled compounds were studied in animals to assess their binding characteristics in the brain. Procedures for these biodistribution studies are as follows. […] The brain regions (cerebellum, hippocampus, striatum, frontal cortex, thalamus and hypothalamus), along with samples of blood and part of the tail, were removed, weighed, and counted in a Packard Cobra II gamma counter. The percent injected dose (% ID) of the decay- and tail-corrected activity in the brain regions and blood were calculated based upon C-11 standards prepared from the injection solution, and the % ID/g were calculated using the tissue weights.
# [5] = Experiment 5: plasma clearance of ^11C and ^18F labeled AFM, AFA, AFE in one baboon; type: in vivo; settings: one adult male baboon, n = 1 to 4 scans
# Description: (§1) General scanning methods were as described in Huang et al. (2002). Arterial input function was measured and corrected for metabolites.
# [6] = Experiment 4: plasma analysis, [^11C]AFM and [^18F]AFM in the same baboon
# Description: The animal was then injected with [^18F]AFM (2.60 mCi, 425 Ci/mmol, 1.51 μg) and scanned for 90 minutes. […] Arterial activity was corrected for parent fraction to form the input function.
# [7] = system: SERT; assay: Experiment 5: PET brain imaging of ^11C and ^18F labeled AFM, AFA, AFE in one baboon; type: in vivo; settings: one adult male baboon, n = 1 to 4 scans, two-compartment model
# Description: as §1
# Activity distributed in the brain in accordance to the known density distribution pattern of SERT (Laruelle et al., 1988). […] Data were analyzed with a two-compartment model, using the metabolite-corrected arterial time-activity curve as input function. This analysis provided the regional distribution volumes (VT, mL/g).
# The nonspecific distribution volume, measured as the distribution volume of the cerebellum (a region with negligible SERT density) was in a similar range for all tracers (10 to 30 mL/g, Table 16).
# The specific to nonspecific partition coefficient, V3″, was calculated as the ratio of VT in the region of interest (ROI) to cerebellum VT minus one. V3″ provides a measure related to receptor parameters as follows: […]
compound,measurement,setting,value
CN(C)Cc1ccccc1Sc1ccc(C#N)cc1N [[^11C]DASB],Data acquisition required to derive stable VT values in all regions,"[1]; humans (Ginovart et al., 2001)",no more than 80 minutes
same,V3″ occipital cortex,"[1]; humans, literature",0.51±0.09
same,VT CER (cerebellum distribution volume),"[1]; humans, literature",11.8 ± 1.5 mL/g
same,pKd,[2],8.96
[11CH3]Sc1ccc([C@H]2CN3CCC[C@H]3c3ccccc32)cc1 [[^11C]McN 5652],V3″ medial prefrontal cortex,"[1]; humans (Parsey et al., 2000)",0.08
same,V3″ cingulate cortex,"[1]; humans, literature",0.21
same,V3″ hippocampus,"[1]; humans, literature",0.49
same,V3″ midbrain,"[1]; humans, literature",1.63
same,V3″ occipital cortex,"[1]; humans, literature",0.17
same,V3″ striatum,"[1]; humans, literature",1.03
same,V3″ temporal cortex,"[1]; humans, literature",0.22
same,V3″ thalamus,"[1]; humans, literature",0.92
same,VT CER (cerebellum distribution volume),"[1]; humans, literature",17.8 ± 1.9 mL/g and 11.9 ± 3.3 mL/g
same,Data acquisition required for time-independent / stable VT or BP estimates,"[1]; humans, regions with high SERT density such as the midbrain (Parsey et al., 2000)",at least 120 minutes
"CN([11CH3])Cc1ccccc1Sc1ccc(CF)cc1N [[^11C]AFM, [^11C]2-[2-(Dimethylaminomethyl)phenylthio]-5-fluoromethylphenylamine]",Thalamus V3″,[3],2.26
same,% ID/g Blood,[4]; 10 min post-injection,0.37 ± 0.28 % ID/g
same,% ID/g Cerebellum,[4]; 10 min post-injection,0.40 ± 0.06 % ID/g
same,% ID/g Frontal Ctx.,[4]; 10 min post-injection,0.99 ± 0.25 % ID/g
same,% ID/g Hippocamp.,[4]; 10 min post-injection,0.59 ± 0.14 % ID/g
same,% ID/g Hypothal.,[4]; 10 min post-injection,0.75 ± 0.19 % ID/g
same,% ID/g Striatum,[4]; 10 min post-injection,0.72 ± 0.17 % ID/g
same,% ID/g Thalamus,[4]; 10 min post-injection,0.79 ± 0.15 % ID/g
same,% ID/g Blood,[4]; 30 min post-injection,0.28 ± 0.01 % ID/g
same,% ID/g Cerebellum,[4]; 30 min post-injection,0.41 ± 0.11 % ID/g
same,% ID/g Frontal Ctx.,[4]; 30 min post-injection,1.31 ± 0.28 % ID/g
same,% ID/g Hippocamp.,[4]; 30 min post-injection,0.95 ± 0.29 % ID/g
same,% ID/g Hypothal.,[4]; 30 min post-injection,1.37 ± 0.48 % ID/g
same,% ID/g Striatum,[4]; 30 min post-injection,1.12 ± 0.21 % ID/g
same,% ID/g Thalamus,[4]; 30 min post-injection,1.18 ± 0.30 % ID/g
same,% ID/g Blood,[4]; 60 min post-injection,0.19 ± 0.03 % ID/g
same,% ID/g Cerebellum,[4]; 60 min post-injection,0.21 ± 0.04 % ID/g
same,% ID/g Frontal Ctx.,[4]; 60 min post-injection,1.37 ± 0.10 % ID/g
same,% ID/g Hippocamp.,[4]; 60 min post-injection,0.84 ± 0.10 % ID/g
same,% ID/g Hypothal.,[4]; 60 min post-injection,1.27 ± 0.16 % ID/g
same,% ID/g Striatum,[4]; 60 min post-injection,1.02 ± 0.15 % ID/g
same,% ID/g Thalamus,[4]; 60 min post-injection,1.29 ± 0.22 % ID/g
same,Clearance,[5],47 ± 11 L/h
same,Clearance of the parent compound,[6],31 L/h
same,Percent plasma activity corresponding to the parent compound,[6]; 2 minutes,75.6%
same,Percent plasma activity corresponding to the parent compound,[6]; 4 minutes,55.4%
same,Percent plasma activity corresponding to the parent compound,[6]; 12 minutes,21.4%
same,Percent plasma activity corresponding to the parent compound,[6]; 30 minutes,9.4%
same,Percent plasma activity corresponding to the parent compound,[6]; 60 minutes,6.4%
same,Percent plasma activity corresponding to the parent compound,[6]; 90 minutes,6.7%
same,Cerebellum V (nonspecific distribution volume),[7],32 ± 6 mL/g
